A word on the inhibition: it is the change of the read-out against control, counted positive when it falls. Higher therefore signals a strong effect. As usually defined, the ED50 is the dose at which the effect has come halfway, by size or by number of responders.

Consider 16 molecules from patent US8492589B2, “Alkynyl phenyl derivative compounds for treating ophthalmic diseases and disorders” (Acucela Inc., priority 2007, dated 2013).

Read-outs that look alike come from different tables or passages of the source.

In the experiment the target is T1, isomerase (Mus musculus, UniProt Q91ZQ5).
T1 construct: The recovery of 11-cis-retinal after bleaching can be used to estimate the activity of isomerase in vivo; from tissue; host or cells: eyes of living CD-1 and Balb/c male mice
T1 sequence (Q91ZQ5 1-533): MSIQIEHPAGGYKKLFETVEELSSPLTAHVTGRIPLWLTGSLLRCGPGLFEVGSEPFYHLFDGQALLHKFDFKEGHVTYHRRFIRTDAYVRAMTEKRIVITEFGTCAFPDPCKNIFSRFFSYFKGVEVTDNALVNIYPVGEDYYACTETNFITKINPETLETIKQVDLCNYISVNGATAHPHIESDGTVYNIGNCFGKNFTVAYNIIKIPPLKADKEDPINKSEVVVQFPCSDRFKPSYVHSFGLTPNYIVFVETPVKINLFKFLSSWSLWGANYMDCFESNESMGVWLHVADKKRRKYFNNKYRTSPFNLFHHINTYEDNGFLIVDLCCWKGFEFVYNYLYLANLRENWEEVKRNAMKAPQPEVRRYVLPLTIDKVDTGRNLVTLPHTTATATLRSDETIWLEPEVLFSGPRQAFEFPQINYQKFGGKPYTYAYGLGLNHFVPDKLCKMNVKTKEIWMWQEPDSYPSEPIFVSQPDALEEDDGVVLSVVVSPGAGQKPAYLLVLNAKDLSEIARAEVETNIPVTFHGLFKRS
Briefly: In vivo murine isomerase assay (recovery of 11-cis-retinal after photobleaching). Also noted: species or system mice. To be noted: for isomerase inhibitory activity / inhibition at 1 mg/kg / inhibition at 5 mg/kg: CD1 male mice; for inhibition in vivo at 1 mg/kg / inhibition in vivo at 5 mg/kg: read-out: % Inibition. The procedure: The capability of alkynyl phenyl-linked amine derivatives to inhibit isomerase is determined by an in vivo murine isomerase assay. Brief exposure of the eye to intense light (“photobleaching” of the visual pigment or simply “bleaching”) is known to photo-isomerize almost all 11-cis-retinal in the retina. The recovery of 11-cis-retinal after bleaching can be used to estimate the activity of isomerase in vivo. Delayed recovery, as represented by lower 11-cis-retinal oxime levels, indicates inhibition of isomerization reaction. Procedures were performed essentially as described by Golczak et al., Proc. Natl. Acad. Sci. […] See also Deigner et al., Science, 244: 968-71 (1989); […] Parish, et al., Proc. Natl. Acad. Sci. USA, 14609-13 (1998); […] Six-week old dark-adapted CD-1 (albino) male mice were orally gavaged with compound (0.03-3 mg/kg) dissolved in 100 μl corn oil containing 10% ethanol (five animals per group). […] After 2-24 hours in the dark, the mice were exposed to photobleaching of 5,000 lux of white light for 10 minutes. The mice were allowed to recover 2 hours in the dark. The animals were then sacrificed by carbon dioxide inhalation. Retinoids were extracted from the eye and the regeneration of 11-cis-retinal was assessed at various time intervals. All steps were performed in darkness with minimal redlight illumination (low light darkroom lights and […] flashlights for spot illumination as needed) (see, e.g., Maeda et al., J. Neurochem 85:944-956, 2003; Van Hooser et al., J Biol Chem 277:19173-82, 2002). After the mice were sacrificed, the eyes were immediately removed and placed in liquid nitrogen for storage. The eyes were placed in 500 μL of bis-tris propane buffer (10 mM, pH 7.3) and 20 μL of 0.8M hydroxile amine (pH-7.3). The eyes were cut up into small pieces with small iris scissors and then thoroughly homogenized at 30000 rpm with a mechanical homogenizer (Polytron PT 1300 D) in the tube until no visible tissue remained. 500 μL of methanol and 500 μL of heptane were added to each tube. The tubes were attached to a vortexer so that the contents were mixed thoroughly for 15 minutes in room temperature. […] The samples were analyzed on an Agilent 1100 HPLC system with normal phase column: SILICA (Beckman Coutlier, dp 5 μm, […]). The running method has a flow rate of 1.5 ml/min; solvent components are 15% solvent 1 (1% isopropanol in ethyl acetate), and 85% solvent 2 (100% hexanes). Loading volume for each sample is 100 μl; detection wavelength is 360 nm. The area under the curve for 11-cis retinal oxime was calculated by Agilent Chemstation software and was recorded manually. Data processing was performed using Prizm software. Positive control mice (no compound administered) were sacrificed fully dark-adapted and the eye retinoids analyzed. Light (bleached) control mice (no compound administered) were sacrificed and retinoids isolated and analyzed immediately after light treatment. […] Animals that received Compound 19 HCl were orally dosed with 0.01 and 1 mg/kg of compound in sterile water as solution, and photobleached 4 hours after dosing. Recovery and retinoid analysis were performed as described above. Dark control mice were vehicle-only treated, sacrificed fully dark adapted without light treatment, and analyzed. […] A time course study was performed to determine the isomerase inhibitory activity of Compounds 2, 18 and 19. Male Balb/c mice (4/group) received 3 mg Compound 2-HCl, Compound 18-HCl or Compound 19-HCl (in water) per kg bodyweight orally, by gavage. The animals were then “photo-bleached” (5000 Lux white light for 10 minutes) at 2, 4, 8, 16 and 24 hours after dosing, and returned to darkness to allow recovery of the 11-cis-retinal content of the eyes. Mice were sacrificed 2 hours after bleaching, eyes were enucleated, and retinoid content was analyzed by HPLC. A single dose study of the compound of Example 36 (Compound 36) was performed, at 1 mg/kg and 5 mg/kg oral dosing, 2, 4, 6, and 24 hours post bleaching. […]

With `COc1ccccc1C#Cc1cccc(CCCN)c1` [Example 36, 3-(3-((2-Methoxyphenyl)Ethynyl)Phenyl)Propan-1-Amine], the “isomerase inhibitory activity” value (1 mg/kg single oral dose) was “inactive” and the “isomerase inhibitory activity” value (5 mg/kg single oral dose, at 24 h) is listed as “full recovery”. For the same molecule, the inhibition at 1 mg/kg runs as follows: (mouse, po, 1 mg/kg single oral dose, 2 h) 6%; (mouse, po, 1 mg/kg single oral dose, 6 h) 5%; (mouse, po, 1 mg/kg single oral dose, 24 h) 0%. The molecule further had an inhibition at 5 mg/kg (mouse, po, 5 mg/kg single oral dose, 2 h) of 46%; an inhibition at 5 mg/kg (mouse, po, 5 mg/kg single oral dose, 6 h) of 45%; an inhibition at 5 mg/kg (mouse, po, 5 mg/kg single oral dose, 24 h) of 0%.
Regarding `CC(C)C(O)(C#Cc1cccc(CCCN)c1)C(C)C` [Example 32, 1-(3-(3-Aminopropyl)phenyl)-3-isopropyl-4-methylpent-1-yn-3-ol], the inhibition in vivo at 1 mg/kg amounted to 75% (mouse, 4 h) and 14% (mouse, 24 h).
On the same counts, the results for `NCCCc1cccc(C#Cc2ccncc2)c1` [Example 63, 3-(3-(Pyridin-4-ylethynyl)phenyl)propan-1-amine] are 11% and 0%.
On to `NCCCc1cccc(C#Cc2ccccn2)c1` [Example 61, 3-(3-(Pyridin-2-ylethynyl)phenyl)propan-1-amine], for which the inhibition in vivo at 1 mg/kg was 0% (mouse, 4 h) and 0% (mouse, 24 h).
In the case of `NCCCc1cccc(C#CC2CCCC2)c1` [Example 38, 3-(3-(Cyclopentylethynyl)phenyl)propan-1-amine], where the note is “mouse, 4 h”, the inhibition in vivo at 1 mg/kg was found to be 0% and the inhibition in vivo at 5 mg/kg was 8%. Moreover, for the setting “mouse, 24 h”, the inhibition in vivo at 1 mg/kg was found to be 0% and the inhibition in vivo at 5 mg/kg was 1%.
As for `NCCOc1cccc(C#CC2(O)CCCCCC2)c1` [Example 78, 1-((3-(2-aminoethoxy)phenyl)ethynyl)-cycloheptanol], the inhibition in vivo at 1 mg/kg is, setting by setting: (mouse, 4 h) 0%; (mouse, 24 h) 0%.
Turning to `NCCC(O)c1cccc(C#CC2CCCCC2)c1` (stereo not shown) [Example 52, 3-Amino-1-(3-(Cyclohexylethynyl)Phenyl)Propan-1-ol], the inhibition in vivo at 1 mg/kg turned out to be 72% (mouse, 4 h) and 2% (mouse, 24 h).
As for `NCCC(O)c1cccc(C#CCCCCO)c1` (stereo not shown) [Example 50, 6-(3-(3-Amino-1-hydroxypropyl)phenyl)hex-5-yn-1-ol], the inhibition in vivo at 1 mg/kg is, setting by setting: (mouse, 4 h) 13%; (mouse, 24 h) 31%.
`NCCCc1cccc(C#CC2(O)CCCC2)c1` [Example 24, 1-((3-(3-Aminopropyl)phenyl)ethynyl)cyclopentanol]: the inhibition in vivo at 1 mg/kg runs as follows: (mouse, 4 h) 0%; (mouse, 24 h) 0%. In addition, the inhibition in vivo at 5 mg/kg runs as follows: (mouse, 4 h) 27%; (mouse, 24 h) 0%.
For `CCCC(C#Cc1cccc(CCCN)c1)(CCC)OC` [Example 4, 3-(3-(3-Methoxy-3-propylhex-1-ynyl)phenyl)propan-1-amine], the inhibition in vivo at 1 mg/kg by setting is: (mouse, 4 h) 21%; (mouse, 24 h) 0%. Besides, the inhibition in vivo at 5 mg/kg is 95% (mouse, 4 h) and 0% (mouse, 24 h).
Take `NCCOc1cccc(C#Cc2ccccc2)c1` [Example 81, 2-(3-(Phenylethynyl)phenoxy)-ethanamine]: the inhibition in vivo at 1 mg/kg was determined as 8% (mouse, 4 h) and 3% (mouse, 24 h).
Regarding `CCCC(O)(C#Cc1cccc(CCCN)c1)CCC` [Example 2, 4-((3-(3-Aminopropyl)phenyl)ethynyl)heptan-4-ol], the ED50 (mouse, po, read-out: ED50 (dose of compound that gives 50% inhibition of 11-cis retinal (oxime) recovery), estimated, male Balb/c mice, HCl salts dosed orally in mg/kg, photobleached 4 hours after dosing) was 0.69 mg/kg. The “inhibition of isomerase activity in vivo (figure legend)” value (oral dose response, photobleached 4 hours after dosing, Balb/c mice) was “concentration-dependent inhibition”.
For the molecule `NCCCc1cccc(C#CC2(O)CCCCC2)c1` [Example 11, 1-((3-(3-Aminopropyl)phenyl)ethynyl)cyclohexanol], where the note is “mouse, 4 h”, the inhibition in vivo at 1 mg/kg was 0% and the inhibition in vivo at 5 mg/kg was determined as 17%. Besides, under “mouse, 24 h”, the inhibition in vivo at 1 mg/kg turned out to be 0% and the inhibition in vivo at 5 mg/kg is 0%.
Turning to `NCCC(O)c1cccc(C#CC2(O)CCCCCC2)c1` (stereo not shown) [Example 59, 1-((3-(3-Amino-1-hydroxypropyl)phenyl)ethynyl)cycloheptanol], the inhibition in vivo at 1 mg/kg is, setting by setting: (mouse, 4 h) 31%; (mouse, 24 h) 0%.
On the same counts, the results for `NCCOc1cccc(C#CC2(O)CCSCC2)c1` [Example 55, 4-((3-(2-Aminoethoxy)Phenyl)Ethynyl)Tetrahydro-2H-Thiopyran-4-ol] are 16% and 7%.
On the same counts, the results for `NCCOc1cccc(C#CC2CCCC2)c1` [Example 79, 2-(3-(Cyclopentylethynyl)phenoxy)-ethanamine] are 7% and 1%.
